Test results from patent US20250057958A1, “CYTOTOXICITY TARGETING CHIMERAS FOR CCR2-EXPRESSING CELLS” (GLAXOSMITHKLINE INTELLECTUAL PROPERTY DEVELOPMENT LIMITED, priority 2022, published 2025).

Key:
[1] = biological target: T1, CHOK1 cells engineered to overexpress human CCR2 (Homo sapiens, UniProt P41597); test: Antibody dependent cellular cytotoxicity (ADCC) reporter assay; assay type: cell-based; settings: with anti-cotinine antibody (SEQ ID NO: 11/12, human IgG1 Fc S239D/I332E); Jurkat FcγRIIIa NFAT-luciferase reporter cells; 12-18 hours; average if more than one run; read-out: ADCC Reporter Assay pEC50 (converted)
T1 construct: expressed in transfected cells; host or cells: CHOK1 cells
Method: An antibody dependent cellular cytoxocity reporter assay was conducted using the following four assay components: (i) ARM compound of Formula (I) targeting CCR2 (concentrations ranging from 1 pM to 10 μM) (ii) anti-cotinine antibody having a heavy chain sequence of SEQ ID NO: 11 and a light chain sequence of SEQ ID NO: 12 (rabbit variable region with human IgG1 Fc domain containing a DE mutation (S239D/I332E)) (concentrations ranging from 0.01 μg/mL to 200 μg/mL); (iii) target cells: CHOK1 cells engineered to overexpress either human CCR2 (typically 1000-20,000 cells perwell) and (iv) reporter cells: Jurkat cells engineered to express FcγRIIIa with the reporter gene luciferase under the control of the NFAT promoter (typically 3000-75,000 cells per well). Reagents were combined in a final volume of 20 μL in a 384—well tissue culture treated plate. All four assay components were incubated together for about 12-18 hours. Thereafter, BioGlo Detection reagent (Promega) was added to the wells to lyse the cells and provide a substrate for the luciferase reporter protein. Luminescence signal was measured on a microplate reader and signal:background was calculated by dividing the signal of a test well by the signal obtained when no ARM compound of Formula (I) was added. EC50 calculations were done using Graphpad Prism Software, specifically a nonlinear regression curve fit (Y=Bottom+(Top−Bottom)/(1+10 ^((Log EC50−X)*HillSlope))).
ARMs compounds of Formula (I) of the invention were tested for ADCC activity in the above assay in or more experimental runs and the results are shown in Table 3 below. Potency of the compounds of Formula (I) of the invention is reported as a pEC50 value. The pEC50 value is the negative log of the EC50 value, wherein the EC50 value is the half maximal effective concentration measured in molar (M). For compounds tested in more than one experimental run, the pEC50 value is reported as an average.

[2] = biological target: human alpha1 nicotinic acetylcholine (nACh) receptor (Homo sapiens, UniProt P02708+Q07001); test: Nicotinic acetylcholine receptor antagonism assay (IONFlux automated patch clamp); assay type: cell-based; settings: for IC50: nAChR antagonism, stimulated with ACh, average if more than one run
Source text: Cells expressing human alpha1 nicotinic acetylcholine (nACh) receptor (nAChR) were washed and dissociated using Trypsin containing buffer. Cells were then washed and seeded at a density of 3-5 million cells/mL and allowed to grow for 3 days. […] The receptor was then stimulated via addition of acetylcholine (ACh) and activation of the receptor was monitored via the IONFlux automated patch clamp system. IonFlux Data Analyzer software was utilized to perform leak subtraction and measure (min) peak current amplitude.
Data processing: (1) Current values recorded for vehicle only applications in individual traps/patterns were subtracted from corresponding current amplitude values for control, test article and control+test article. (2) Control response was calculated as % of the average response of the 3rd out of total 3 ACh (10 mM) applications alone. In rare situations, if the 3rd ACh response was obscured due to technical artifacts, the 2nd and/or 1st ACh (10 mM) application was considered as control. The peak current amplitude generated in the presence of each test article concentration was then used to calculate the % inhibition as compared to control response (10 mM ACh alone). These estimates were further corrected for vehicle response and run down corrected by normalizing with time matched control responses (10 mM ACh alone). The corrected percentages were then fit with a non-linear function in GraphPad Prism 6 (or later versions) to determine the IC50.
Exclusion criteria: (i) any n's with poor recording quality, (ii) control current amplitude <500 pA or (iii) significant outliers, as determined by the Grubbs' test.
ARMs compounds of Formula (I) of the invention were tested for antagonism of the nAChR in the above assay in […] experimental runs and the results are shown in Table 5 below. Antagonistic activity of the compounds of Formula (I) of the invention is reported as an IC50 value (half maximal inhibitory concentration) and the maximum percentage antagonism observed at the highest concentration of compound of Formula (I) tested, as indicated in Table 5. For compounds tested in more than one experimental run, the IC50 value is reported as an average.

[3] = maximum percentage antagonism at highest concentration tested, read-out: Maximum Response (%)

Sequence of human alpha1 nicotinic acetylcholine (nACh) receptor (P02708 21-457): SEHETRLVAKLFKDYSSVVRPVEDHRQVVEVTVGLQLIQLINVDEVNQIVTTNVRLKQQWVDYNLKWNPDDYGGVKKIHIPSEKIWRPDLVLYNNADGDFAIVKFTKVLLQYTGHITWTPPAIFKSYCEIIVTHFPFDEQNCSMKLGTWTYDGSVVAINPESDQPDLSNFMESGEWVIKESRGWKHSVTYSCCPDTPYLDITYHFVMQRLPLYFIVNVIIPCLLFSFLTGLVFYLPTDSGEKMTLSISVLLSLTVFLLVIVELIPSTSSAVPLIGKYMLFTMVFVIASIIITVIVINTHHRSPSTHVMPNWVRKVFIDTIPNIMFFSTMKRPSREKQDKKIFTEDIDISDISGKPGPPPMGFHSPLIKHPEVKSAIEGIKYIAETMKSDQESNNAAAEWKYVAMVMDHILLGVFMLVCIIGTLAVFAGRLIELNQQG
Sequence of human alpha1 nicotinic acetylcholine (nACh) receptor (P11230 24-501 partner): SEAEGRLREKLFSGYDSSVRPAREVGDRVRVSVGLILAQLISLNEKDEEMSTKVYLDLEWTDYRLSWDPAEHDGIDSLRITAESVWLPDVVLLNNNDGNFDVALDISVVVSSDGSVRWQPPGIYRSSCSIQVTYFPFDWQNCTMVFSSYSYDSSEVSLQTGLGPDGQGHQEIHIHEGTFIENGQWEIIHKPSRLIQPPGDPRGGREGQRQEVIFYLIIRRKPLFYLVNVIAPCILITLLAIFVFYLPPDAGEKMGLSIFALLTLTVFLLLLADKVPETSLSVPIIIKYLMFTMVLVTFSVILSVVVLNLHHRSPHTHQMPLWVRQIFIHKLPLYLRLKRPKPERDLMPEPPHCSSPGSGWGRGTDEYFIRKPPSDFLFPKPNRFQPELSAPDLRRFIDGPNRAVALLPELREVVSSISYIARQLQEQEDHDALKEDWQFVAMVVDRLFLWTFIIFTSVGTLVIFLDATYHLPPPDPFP
Sequence of human alpha1 nicotinic acetylcholine (nACh) receptor (Q07001 22-517): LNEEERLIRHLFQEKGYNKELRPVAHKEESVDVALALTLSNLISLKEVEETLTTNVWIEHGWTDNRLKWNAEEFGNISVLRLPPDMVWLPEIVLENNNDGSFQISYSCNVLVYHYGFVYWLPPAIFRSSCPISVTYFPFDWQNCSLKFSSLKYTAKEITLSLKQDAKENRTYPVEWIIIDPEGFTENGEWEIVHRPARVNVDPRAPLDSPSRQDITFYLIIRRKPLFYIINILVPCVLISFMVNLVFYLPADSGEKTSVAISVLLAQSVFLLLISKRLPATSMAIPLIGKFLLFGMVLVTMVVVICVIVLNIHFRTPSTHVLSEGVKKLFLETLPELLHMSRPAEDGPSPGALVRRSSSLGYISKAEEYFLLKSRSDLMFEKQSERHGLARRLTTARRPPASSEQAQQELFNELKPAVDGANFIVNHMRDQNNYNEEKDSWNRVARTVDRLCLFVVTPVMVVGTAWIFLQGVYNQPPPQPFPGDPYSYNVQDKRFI

SMILES | EC50 [1] | Emax at 11.11 µM ([2]; maximum percentage antagonism at highest concentration tested, 11.11 μM, read-out: Maximum Response (%)) | IC50 [2] | Emax at 100 µM [2, 3] | Emax at 33.3 µM ([2]; maximum percentage antagonism at highest concentration tested, 33.3 μM, read-out: Maximum Response (%)) | Emax at 11.1 µM ([2]; maximum percentage antagonism at highest concentration tested, 11.1 μM, read-out: Maximum Response (%))
CC(=O)N[C@@H]1C[C@H](NC(C)(C)C)CC[C@@H]1N1CC[C@H](Nc2nc(NCC3CCN(C(=O)[C@H]4CC[C@H](NC(=O)CCCO[C@H]5CC[C@H](OCCNC(=O)[C@H]6CC(=O)N(C)[C@@H]6c6cccnc6)CC5)CC4)CC3)nc3ccc(C(F)(F)F)cc23)C1=O [Example 2, (2S,3S)-N-(2-(((1R,4S)-4-(4-(((1S,4R)-4-(4-(((4-(((S)-1-((1S,2R,4R)-2-Acetamido-4-(tert-butylamino)cyclohexyl)-2-oxopyrrolidin-3-yl)amino)-6-(trifluoromethyl)quinazolin-2-yl)amino)methyl)piperidine-1-carbonyl)cyclohexyl)amino)-4-oxobutoxy)cyclohexyl)oxy)ethyl)-1-methyl-5-oxo-2-(pyridin-3-yl)pyrrolidine-3-carboxamide] | 0.316 nM | 9% | > 11100 nM | – | – | –
CC(=O)N[C@@H]1C[C@H](NC(C)(C)C)CC[C@@H]1N1CC[C@H](Nc2nc(CCNC(=O)[C@H]3CC[C@H](NC(=O)CCCO[C@H]4CC[C@H](OCCNC(=O)[C@H]5CC(=O)N(C)[C@@H]5c5cccnc5)CC4)CC3)nc3ccc(C(F)(F)F)cc23)C1=O [Example 4, (2S,3S)-N-(2-(((1R,4S)-4-(4-(((1S,4R)-4-((2-(4-(((S)-1-((1S,2R,4R)-2-Acetamido-4-(tert-butylamino)cyclohexyl)-2-oxopyrrolidin-3-yl)amino)-6-(trifluoromethyl)quinazolin-2-yl)ethyl)carbamoyl)cyclohexyl)amino)-4-oxobutoxy)cyclohexyl)oxy)ethyl)-1-methyl-5-oxo-2-(pyridin-3-yl)pyrrolidine-3-carboxamide] | 0.251 nM | – | > 100000 nM | 48% | – | –
CC(=O)N[C@@H]1C[C@H](NC(C)(C)C)CC[C@@H]1N1CC[C@H](Nc2nc(OCC3CCN(C(=O)[C@H]4CC[C@H](NC(=O)CCCO[C@H]5CC[C@H](OCCNC(=O)[C@H]6CC(=O)N(C)[C@@H]6c6cccnc6)CC5)CC4)CC3)nc3ccc(C(F)(F)F)cc23)C1=O [Example 8, (2S,3S)-N-(2-(((1R,4S)-4-(4-(((1S,4R)-4-(4-(((4-(((S)-1-((1S,2R,4R)-2-Acetamido-4-(tert-butylamino)cyclohexyl)-2-oxopyrrolidin-3-yl)amino)-6-(trifluoromethyl)quinazolin-2-yl)oxy)methyl)piperidine-1-carbonyl)cyclohexyl)amino)-4-oxobutoxy)cyclohexyl)oxy)ethyl)-1-methyl-5-oxo-2-(pyridin-3-yl)pyrrolidine-3-carboxamide] | 50.1 nM | – | – | – | – | –
CC(=O)N[C@@H]1C[C@H](N(C)C(C)C)CC[C@@H]1N1CC[C@H](Nc2nc(CCCNC(=O)[C@H]3CC[C@H](NC(=O)CCCO[C@H]4CC[C@H](OCCNC(=O)[C@H]5CC(=O)N(C)[C@@H]5c5cccnc5)CC4)CC3)nc3ccc(C(F)(F)F)cc23)C1=O [Example 6, (2S,3S)-N-(2-(((1R,4S)-4-(4-(((1S,4R)-4-((3-(4-(((S)-1-((1S,2R,4R)-2-Acetamido-4-(isopropyl(methyl)amino)cyclohexyl)-2-oxopyrrolidin-3-yl)amino)-6-(trifluoromethyl)quinazolin-2-yl)propyl)carbamoyl)cyclohexyl)amino)-4-oxobutoxy)cyclohexyl)oxy)ethyl)-1-methyl-5-oxo-2-(pyridin-3-yl)pyrrolidine-3-carboxamide] | 0.158 nM | – | > 33300 nM | – | 48% | –
CC(=O)N[C@@H]1C[C@H](NC(C)(C)C)CC[C@@H]1N1CC[C@H](Nc2nc(C3CCN(C(=O)[C@H]4CC[C@H](NC(=O)CCCO[C@H]5CC[C@H](OCCNC(=O)[C@H]6CC(=O)N(C)[C@@H]6c6cccnc6)CC5)CC4)CC3)nc3ccc(C(F)(F)F)cc23)C1=O [Example 9, (2S,3S)-N-(2-(((1R,4S)-4-(4-(((1S,4R)-4-(4-(4-(((S)-1-((1S,2R,4R)-2-Acetamido-4-(tert-butylamino)cyclohexyl)-2-oxopyrrolidin-3-yl)amino)-6-(trifluoromethyl)quinazolin-2-yl)piperidine-1-carbonyl)cyclohexyl)amino)-4-oxobutoxy)cyclohexyl)oxy)ethyl)-1-methyl-5-oxo-2-(pyridin-3-yl)pyrrolidine-3-carboxamide] | 0.631 nM | – | > 11100 nM | – | – | 2%
CC(=O)N[C@@H]1C[C@H](NC(C)(C)C)CC[C@@H]1N1CC[C@H](Nc2nc(NCCNC(=O)[C@H]3CC[C@H](NC(=O)CCCO[C@H]4CC[C@H](OCCNC(=O)[C@H]5CC(=O)N(C)[C@@H]5c5cccnc5)CC4)CC3)nc3ccc(C(F)(F)F)cc23)C1=O [Example 12, (2S,3S)-N-(2-(((1R,4S)-4-(4-(((1S,4R)-4-((2-((4-(((S)-1-((1S,2R,4R)-2-Acetamido-4-(tert-butylamino)cyclohexyl)-2-oxopyrrolidin-3-yl)amino)-6-(trifluoromethyl)quinazolin-2-yl)amino)ethyl)carbamoyl)cyclohexyl)amino)-4-oxobutoxy)cyclohexyl)oxy)ethyl)-1-methyl-5-oxo-2-(pyridin-3-yl)pyrrolidine-3-carboxamide] | 0.251 nM | – | – | – | – | –
CC(=O)N[C@@H]1C[C@H](NC(C)(C)C)CC[C@@H]1N1CC[C@H](Nc2nc(OC3CCN(C(=O)[C@H]4CC[C@H](NC(=O)CCCO[C@H]5CC[C@H](OCCNC(=O)[C@H]6CC(=O)N(C)[C@@H]6c6cccnc6)CC5)CC4)CC3)nc3ccc(C(F)(F)F)cc23)C1=O [Example 7, (2S,3S)-N-(2-(((1R,4S)-4-(4-(((1S,4R)-4-(4-((4-(((S)-1-((1S,2R,4R)-2-acetamido-4-(tert-butylamino)cyclohexyl)-2-oxopyrrolidin-3-yl)amino)-6-(trifluoromethyl)quinazolin-2-yl)oxy)piperidine-1-carbonyl)cyclohexyl)amino)-4-oxobutoxy)cyclohexyl)oxy)ethyl)-1-methyl-5-oxo-2-(pyridin-3-yl)pyrrolidine-3-carboxamide] | 79.4 nM | – | – | – | – | –
CC(=O)N[C@@H]1C[C@H](NC(C)(C)C)CC[C@@H]1N1CC[C@H](Nc2nc(COCCNC(=O)[C@H]3CC[C@H](NC(=O)CCCO[C@H]4CC[C@H](OCCNC(=O)[C@H]5CC(=O)N(C)[C@@H]5c5cccnc5)CC4)CC3)nc3ccc(C(F)(F)F)cc23)C1=O [Example 14, (2S,3S)-N-(2-(((1R,4S)-4-(4-(((1S,4R)-4-((2-((4-(((S)-1-((1S,2R,4R)-2-acetamido-4-(tert-butylamino)cyclohexyl)-2-oxopyrrolidin-3-yl)amino)-6-(trifluoromethyl)quinazolin-2-yl)methoxy)ethyl)carbamoyl)cyclohexyl)amino)-4-oxobutoxy)cyclohexyl)oxy)ethyl)-1-methyl-5-oxo-2-(pyridin-3-yl)pyrrolidine-3-carboxamide] | 0.501 nM | – | > 100000 nM | 54% | – | –
